The values that follow come from EP4458830A1, “TRICYCLIC COMPOUND, METHOD FOR PREPARING SAME, AND USE THEREOF” (Sichuan Kelun-Biotech Biopharmaceutical Co., Ltd., priority 2021, dated 2023).

The target of the assay is T1, human TLR7 (Homo sapiens, UniProt Q9NYK1).
T1 construct: host or cells: HEK-Blue hTLR7 cells (HEK293-derived reporter line; that the line is stably transfected with the human TLR7 gene is own knowledge of the vendor's product)
T1 sequence (Q9NYK1 27-1049): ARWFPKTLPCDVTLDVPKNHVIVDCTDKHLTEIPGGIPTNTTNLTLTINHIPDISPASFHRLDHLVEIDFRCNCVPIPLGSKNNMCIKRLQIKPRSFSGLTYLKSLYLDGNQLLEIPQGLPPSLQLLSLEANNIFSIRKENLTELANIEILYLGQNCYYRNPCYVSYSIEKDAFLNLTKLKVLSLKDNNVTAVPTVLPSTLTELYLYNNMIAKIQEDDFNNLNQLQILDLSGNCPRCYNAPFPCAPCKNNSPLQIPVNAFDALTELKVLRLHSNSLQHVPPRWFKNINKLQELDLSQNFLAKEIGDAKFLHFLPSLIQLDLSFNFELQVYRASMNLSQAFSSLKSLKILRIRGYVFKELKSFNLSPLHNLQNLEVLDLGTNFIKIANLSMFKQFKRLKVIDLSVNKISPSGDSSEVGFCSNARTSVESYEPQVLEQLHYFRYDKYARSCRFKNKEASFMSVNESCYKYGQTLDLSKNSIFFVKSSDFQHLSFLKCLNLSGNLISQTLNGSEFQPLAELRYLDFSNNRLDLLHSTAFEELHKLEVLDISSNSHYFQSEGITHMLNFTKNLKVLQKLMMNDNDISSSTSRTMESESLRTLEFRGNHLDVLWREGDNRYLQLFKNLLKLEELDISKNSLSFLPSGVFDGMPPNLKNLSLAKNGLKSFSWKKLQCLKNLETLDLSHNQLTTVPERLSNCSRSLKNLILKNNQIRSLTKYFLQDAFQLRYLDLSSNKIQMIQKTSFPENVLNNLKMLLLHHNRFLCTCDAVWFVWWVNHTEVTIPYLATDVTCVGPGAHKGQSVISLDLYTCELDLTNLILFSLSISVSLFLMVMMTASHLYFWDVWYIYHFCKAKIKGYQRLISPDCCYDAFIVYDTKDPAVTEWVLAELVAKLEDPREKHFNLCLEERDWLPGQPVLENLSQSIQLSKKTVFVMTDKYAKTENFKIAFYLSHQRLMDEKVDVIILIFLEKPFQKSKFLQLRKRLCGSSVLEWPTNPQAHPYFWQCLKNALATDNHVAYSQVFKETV
The assay can be described thus: Agonistic activity of compounds on HEK-Blue hTLR7 cells (QUANTI-Blue reporter, OD620). Format: cell-based. The settings on record: for pEC50 / Emax: HEK-Blue hTLR7 cells; for pEC50: 20 h incubation; for Emax: OD620 at which the activation effect reached the maximum; for activation effect on human TLR7: summary in words. As to the method:
• 1. HEK-Blue hTLR7 cells (Invivogen) were cultured in DMEM medium (Hyclone) containing 10% FBS heat-inactivated fetal bovine serum (Corning). On the day of detection, the cell state was observed under a microscope, the cells were collected and resuspended, and the cell concentration was adjusted after counting, 50 µL per well, the total amount of cells was 2×10^4, and the cells were inoculated in a 96-well plate. • 2. After the cells adhered to the wall overnight, 50 µL of the test compound at different concentrations was added into the well plate, so that the final concentrations were 100 µM, 33.3 µM, 11.11 µM, 3.70 µM, 1.23 µM, 0.41 µM, 0.14 µM, 0.05 µM, 0 µM, and the final concentration of DMSO was 1%. The compound was incubated with the cells in a 37°C, 5% CO2 incubator for 20 h. • 3. After the incubation, observation under microscope was performed to determine the maximum signal well, the states of the cells with the highest and lowest concentrations of the compound, and whether the compound will crystalize at high concentration. 10 µL of cell culture supernatant was taken and transferred to a new 96-well transparent plate, 90 µL of QUANTI-Blue (Invivogen) detection reagent was added to each well, and incubated at 37°C for 3 h, and OD620 was read with a multifunctional microplate reader (BMG LABTECH). • 4. EC50 was calculated by fitting with Graphpad Prism software log(agonist) vs. response - Variable slope, and Emax was the OD620 at which the activation effect of the test compound reached the maximum.

The structures appear in SMILES notation. pEC50: −log10 of the molar value.

For the compound `CCCCc1nc2c(N)nc3cc(C4CCNCC4)sc3c2n1CC1CCN(CCOC)CC1` [Compound 41, 2-butyl-7-(hexahydropyridin-4-yl)-1-{[1-(2-methoxyethyl)hexahydropyridin-4-yl]methyl}thieno[3,2-b]imidazo[4,5-d]pyridine-4-amine], the pEC50 was 5.30, the Emax is on record as 0.84 OD620 and the “activation effect on human TLR7” value is reported as “strong activation effect”.

In the case of `COCCc1nc2c(N)nc3ccsc3c2n1CC1CCN(C)CC1` [Compound 56, 2-(2-methoxyethyl)-1-[(1-methylhexahydropyridin-4-yl)methyl] thieno[3,2-b]imidazo[4,5-d]pyridine-4-amine], the negative-log EC50 (pEC50) is 6.34, the Emax is listed as 1.41 OD620 and the “activation effect on human TLR7” value was “strong activation effect”.

On to `CCCCc1nc2c(N)nc3cc(C)sc3c2n1CC1CCN(C)CC1` [Compound 28, 2-butyl-7-methyl-1-((1-methylpiperidin-4-yl)methyl)-1H-imidazo[4,5-d]thieno[3,2-b]pyridine-4-amine], for which the negative logarithm of the EC50 (pEC50) was 6.70, the Emax turned out to be 1.39 OD620 and the “activation effect on human TLR7” value is on record as “strong activation effect”.

Turning to `CCCCc1nc2c(N)nc3cc(C4CCN(C)CC4)sc3c2n1CC1CCOCC1` [Compound 34, 2-butyl-7-(1-methylpiperidin-4-yl)-1-((tetrahydro-2H-pyran-4-yl)methyl)-1H-imidazo[4,5-d]thieno[3,2-b]pyridine-4-amine], the pEC50 is 7.08, the Emax was 1.21 OD620 and the “activation effect on human TLR7” value was “strong activation effect”.

`CCOCc1nc2c(N)nc3ccsc3c2n1CCCCN` [Compound 5, 1-(4-aminobutyl)-2-(2-ethoxymethyl)-1H-imidazo[4,5-d] thieno[3,2-b]pyridine-4-amine]: the pEC50 was 5.49, the Emax came to 1.46 OD620 and the “activation effect on human TLR7” value is recorded as “strong activation effect”.

`CCCCc1nc2c(N)nc3cc(C)sc3c2n1CC1CCN(CCOCCOCCN)CC1` [Compound 15, 1-((1-(2-(2-(2-aminoethoxy)ethoxy)ethyl)piperidin-4-yl)methyl)-2-butyl-7-methyl-1H-imidazo[4,5-d]thieno[3,2-b]pyridine-4-amine]: the negative-log EC50 (pEC50) is 5.85, the Emax came to 2.40 OD620 and the “activation effect on human TLR7” value is “strong activation effect”.

`COCCc1nc2c(N)nc3ccsc3c2n1CC1CCNCC1` [Compound 55, 1-(hexahydropyridin-4-ylmethyl)-2-(2-methoxyethyl) thieno[3,2-b]imidazo[4,5-d]pyridine-4-amine]: the pEC50 was 5.83, the Emax is reported as 1.44 OD620 and the “activation effect on human TLR7” value is “strong activation effect”.

For `CCCCc1nc2c(N)nc3cc(C4CCN(C)CC4)sc3c2n1CC1CCN(C)CC1` [Compound 38, 2-butyl-7-(1-methylpiperidin-4-yl)-1-((1-methylpiperidin-4-yl)methyl)-1H-imidazo[4,5-d]thieno[3,2-b]pyridine-4-amine], the negative logarithm of the EC50 (pEC50) is 5.89, the Emax worked out at 0.49 OD620 and the “activation effect on human TLR7” value is “strong activation effect”.

In the case of `CCCCc1nc2c(N)nc3ccsc3c2n1CC1CCNCC1` [Compound 25, 2-butyl-1-(piperidin-4-ylmethyl)-1H-imidazo[4,5-d]thieno[3,2-b] pyridine-4-amine], the pEC50 is 6.85, the Emax is 2.08 OD620 and the “activation effect on human TLR7” value is reported as “strong activation effect”.

Consider `COCCc1nc2c(N)nc3ccsc3c2n1CCCCN` [Compound 4, 1-(4-aminobutyl)-2-(2-methoxyethyl)-1H-imidazo[4,5-d]thieno[3,2-b]pyridine-4-amine], for which the negative logarithm of the EC50 (pEC50) is 5.62, the Emax is given as 1.74 OD620 and the “activation effect on human TLR7” value is “strong activation effect”.

On to `CCCCc1nc2c(N)nc3cc(C4CCN(C)CC4)sc3c2n1C` [Compound 32, 2-butyl-1-methyl-7-(1-methylpiperidin-4-yl)-1H-imidazo[4,5-d] thieno[3,2-b]pyridine-4-amine], for which the negative-log EC50 (pEC50) is 5.90, the Emax was 0.91 OD620 and the “activation effect on human TLR7” value is “strong activation effect”.

With `CCCCc1nc2c(N)nc3cc(C)sc3c2n1CC1CCN(C(=O)CCOCCOCCN)CC1` [Compound 17, 1-(4-((4-amino-2-butyl-7-methyl-1H-imidazo[4,5-d]thieno[3,2-b]pyridin-1-yl)methyl)piperidin-1-yl)-3-(2-(2-aminoethoxy)ethoxy)propan-1-one], the negative-log EC50 (pEC50) was 5.94, the Emax came to 2.23 OD620 and the “activation effect on human TLR7” value is “strong activation effect”.

Consider `CCCCc1nc2c(N)nc3cc(C4CCN(C(C)=O)CC4)sc3c2n1CC1CCOCC1` [Compound 59, 1-{4-[4-amino-2-butyl-1-(3,4,5,6-tetrahydro-2H-pyran-4-ylmethyl)thieno[3,2-b]imidazo[4,5-d]pyridin-7-yl]hexahydropyridin-1-yl}ethyl-1-one], for which the pEC50 was 7.40, the Emax is on record as 1.45 OD620 and the “activation effect on human TLR7” value is reported as “strong activation effect”.

Consider `CCCCc1nc2c(N)nc3cc(C4CCN(C)CC4)sc3c2n1CC1CCN(CCOC)CC1` [Compound 42, 2-butyl-1-{[1-(2-methoxyethyl)hexahydropyridin-4-yl]methyl}-7-(1-methylhexahydropyridin-4-yl)thieno[3,2-b]imidazo[4,5-d]pyridine-4-amine], for which the pEC50 is 5.84, the Emax is reported as 0.65 OD620 and the “activation effect on human TLR7” value is given as “strong activation effect”.

As to `CCCCc1nc2c(N)nc3cc(C4CCOCC4)sc3c2n1CC1CCN(C)CC1` [Compound 40, 2-butyl-1-((1-methylpiperidin-4-yl)methyl)-7-(tetrahydro-2H-pyran-4-yl)-1H-imidazo[4,5-d]thieno[3,2-b]pyridine-4-amine], the pEC50 is 6.24, the Emax was 1.83 OD620 and the “activation effect on human TLR7” value was “strong activation effect”.

For `CCCCc1nc2c(N)nc3cc(C)sc3c2n1CC1CCN(CCOCCOCCOCCOCCOCCOCCOC)CC1` [Compound 16, 1-((1-(2,5,8,11,14,17,20-heptaoxadocosan-22-yl)piperidin-4-yl)methyl)-2-butyl-7-methyl-1H-imidazo[4,5-d]thieno[3,2-b]pyridine-4-amine], the negative-log EC50 (pEC50) was 5.77, the Emax was 2.18 OD620 and the “activation effect on human TLR7” value was “strong activation effect”.

As for `CCCCc1nc2c(N)nc3cc(C)sc3c2n1CC1CCOCC1` [Compound 26, 2-butyl-7-methyl-1-((tetrahydro-2H-pyran-4-yl)methyl)-1H-imidazo[4,5-d]thieno[3,2-b]pyridine-4-amine], the negative-log EC50 (pEC50) was 7.30, the Emax is on record as 1.78 OD620 and the “activation effect on human TLR7” value is reported as “strong activation effect”.

`CCCCc1nc2c(N)nc3cc(C4=CCN(C)CC4)sc3c2[nH]1` [Compound 8, 2-butyl-7-(1-methyl-1,2,3,6-tetrahydropyridin-4-yl)-1H-imidazo [4,5-d]thieno[3,2-b]pyridine-4-amine]: the pEC50 was 5.60, the Emax was 0.56 OD620 and the “activation effect on human TLR7” value was “strong activation effect”.
